Source: US7632855B2, “Pyrazole compounds as HSP90 inhibitors for the treatment of cancer” (Vernalis (Cambridge) Limited, priority 2003, dated 2009)

Biological target: T1, human full-length HSP90 (Homo sapiens, UniProt P08238)
T1 construct: E. coli expressed human full-length HSP90 protein, purified >95%; made in house; host or cells: E. coli
Assay: Fluorescence Polarisation Assay (competitive displacement of probe RBT0045864-FAM from HSP90)
Assay type: binding
Conditions: E. coli expressed human full-length Hsp90 200 nM; probe RBT0045864-FAM 80 nM; read-out: Hsp90 FP IC50
Text: Fluorescence Polarization Assay
Fluorescence polarization {also known as fluorescence anisotropy} measures the rotation of a fluorescing species in solution, where the larger molecule the more polarized the fluorescence emission. When the fluorophore is excited with polarized light, the emitted light is also polarized. The molecular size is proportional to the polarization of the fluorescence emission. The fluoroscein-labelled probe—RBT0045864-FAM—binds to HSP90 {full-length human, full-length yeast or N-terminal domain HSP90 } and the anisotropy {rotation of the probe-protein complex} is measured.
Compound is added to the assay plate, left to equilibrate and the anisotropy measured again. Any change in anisotropy is due to competitive binding of compound to HSP90, thereby releasing probe.
Chemicals are of the highest purity commercially available and all aqueous solutions are made up in AR water. • 1) Costar 96-well black assay plate #3915 • 2) Assay buffer of (a) 100 mM Tris pH7.4; (b) 20 mM KCl; (c) 6mM MgCl2. Stored at room temperature. • 3) BSA (bovine serum albumen) 10 mg/ml (New England Biolabs # B9001S) • 4) 20 mM RBT0045864 (pyrazole) in 100% DMSO stock concentration. Stored in the dark at RT. Made in-house, Kd^˜[…], depending on the protein used. Working concentration is 200 nM diluted in AR water and stored at 4° C. Final concentration in assay 80 nM. • 5) E. coli expressed human full-length HSP90 protein, purified >95% (see, e.g., Panaretou et al., EMBO J., Vol. 17, pp. 4829-4836, 1998) and stored in 50 μL aliquots at −80° C. Protocol • 1) Add 100 μl 1× buffer to wells 11A and 12A (=FP BLNK) • 2) Prepare assay mix—all reagents are kept on ice with a lid on the bucket as the probe is light-sensitive.
• 3) Aliquot 100 μl assay mix to all other wells • 4) Seal plate and leave in dark at room temp for 20 minutes to equilibrate Compound Dilution Plate—1×3 Dilution Series • 1) In a clear 96-well v-bottom plate—{# VWR 007/008/257} add 10 μl 100% DMSO to wells B1 to H11 • 2) To wells A1 to A11 add 17.5 μl 100% DMSO • 3) Add 2.5 μl cpd to A1. This gives 2.5 mM {50×} stock cpd—assuming cpds 20 mM. • 4) Repeat for wells A2 to A10. Control in columns 11 and 12. • 5) Transfer 5 μl from row A to row B—not column 12. Mix well. • 6) Transfer 5 μl from row B to row C. […] In column 11 {provides standard curve} only add compound B11-H11. Add 2 μl of 100 mM standard cpd to wells B12-H12 {is positive control}
The Z′ factor is calculated from zero controls and positive wells. It typically gives a value of 0.7-0.9.

T1 sequence (P08238 whole entry): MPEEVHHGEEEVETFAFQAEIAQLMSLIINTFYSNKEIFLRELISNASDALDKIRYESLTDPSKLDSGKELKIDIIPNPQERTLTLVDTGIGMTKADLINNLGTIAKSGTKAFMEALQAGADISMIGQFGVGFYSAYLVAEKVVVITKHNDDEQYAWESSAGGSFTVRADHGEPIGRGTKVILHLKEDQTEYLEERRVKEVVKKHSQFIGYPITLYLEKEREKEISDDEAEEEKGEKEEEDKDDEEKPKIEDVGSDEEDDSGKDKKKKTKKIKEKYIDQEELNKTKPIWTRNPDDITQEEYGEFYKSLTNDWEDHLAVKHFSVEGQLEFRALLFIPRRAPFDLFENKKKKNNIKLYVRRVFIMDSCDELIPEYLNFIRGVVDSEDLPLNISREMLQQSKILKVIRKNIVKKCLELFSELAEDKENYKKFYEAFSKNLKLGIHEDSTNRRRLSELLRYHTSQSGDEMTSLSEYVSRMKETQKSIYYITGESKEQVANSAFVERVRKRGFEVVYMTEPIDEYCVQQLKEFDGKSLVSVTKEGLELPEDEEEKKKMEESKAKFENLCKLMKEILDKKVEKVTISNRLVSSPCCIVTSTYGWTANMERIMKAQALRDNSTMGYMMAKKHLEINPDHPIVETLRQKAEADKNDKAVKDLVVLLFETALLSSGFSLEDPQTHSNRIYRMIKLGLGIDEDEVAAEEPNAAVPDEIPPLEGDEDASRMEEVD

IC50, < 10 µM:
COc1ccc(-c2c(-c3cc(Cl)c(O)cc3O)n[nH]c2C(=O)NC(C)C(=O)O)cc1 (stereo not shown) [Example 4]
COc1ccc(-c2c(-c3cc(Cl)c(O)cc3O)n[nH]c2C(=O)N[C@@H](C)C(N)=O)cc1 [Example 10]
COc1ccc(-c2c(-c3cc(Cl)c(O)cc3O)n[nH]c2C(=O)N[C@H](C)C(=O)NCCN(C)C)cc1 [Example 15]
COC(=O)[C@@H](C)NC(=O)c1[nH]nc(-c2cc(Cl)c(O)cc2O)c1-c1ccc(OC)cc1 [Example 7]
COc1ccc(-c2c(-c3cc(Cl)c(O)cc3O)n[nH]c2C(=O)N[C@H](C)C(N)=O)cc1 [Example 9]
COC(=O)C(C)NC(=O)c1[nH]nc(-c2cc(Cl)c(O)cc2O)c1-c1ccc(OC)cc1 (stereo not shown) [Example 3]
COC(=O)CNC(=O)c1[nH]nc(-c2cc(Cl)c(O)cc2O)c1-c1ccc(OC)cc1 [Example 6]
COc1ccc(-c2c(-c3cc(Cl)c(O)cc3O)n[nH]c2C(=O)N[C@H](C)C(=O)NC(C)C)cc1 [Example 14]
COC(=O)[C@H](C)NC(=O)c1[nH]nc(-c2cc(Cl)c(O)cc2O)c1-c1ccc(OC)cc1 [Example 8]
COc1ccc(-c2c(-c3cc(Cl)c(O)cc3O)n[nH]c2C(=O)N[C@H](C)C(=O)NCCN2CCOCC2)cc1 [Example 16]
COc1ccc(-c2c(-c3cc(Cl)c(O)cc3O)n[nH]c2C(=O)N[C@H](C)C(=O)N2CCN(C)CC2)cc1 [Example 12]
CCNC(=O)[C@@H](C)NC(=O)c1[nH]nc(-c2cc(Cl)c(O)cc2O)c1-c1ccc(OC)cc1 [Example 18]
CNC(=O)[C@@H](C)NC(=O)c1[nH]nc(-c2cc(Cl)c(O)cc2O)c1-c1ccc(OC)cc1 [Example 13]
